The values below come from DBAASP.

Some test systems named below: Candida krusei CBS 573; Campylobacter jejuni; Escherichia coli K-12; Escherichia coli.
Common to all, as to experiment: ≥ marks a high value that may be exact or a test limit, other limits are often not marked, values filed in µg/mL are converted to µM
Test [1] has as its system Candida albicans ATCC 10231.
The subject of test [2] is Candida parapsilosis CBS 604.
For test [3], the system named is Saccharomyces cerevisiae SZMC 0644.
The test system of test [4] is Bacillus subtilis CGMCC 1.3376.
Test [5] relates to Escherichia coli CGMCC 1.8732.
For test [6], the system named is Klebsiella pneumoniae CGMCC 1.1736.
Test [7] concerns Pseudomonas aeruginosa CGMCC 1.2421.
Test [8] has as its system Staphylococcus aureus CGMCC 1.8721.
For test [9], the system named is Staphylococcus epidermidis CGMCC 1.4260.
The test system of test [10] is Staphylococcus aureus 5118.
Test [11] has as its system Staphylococcus aureus ATCC 9144.
The subject of test [12] is Staphylococcus aureus E4049.
The test system of test [13] is Acinetobacter baumannii Q12-0809.
Test [14] concerns Acinetobacter baumannii Q12-0867.
In test [15] the test system is Acinetobacter baumannii Q13-0717.
Test [16] concerns Campylobacter jejuni NCTC 11351.
Test [17] deals with Enterococcus faecalis JH-2-2.
The test system of test [18] is Klebsiella pneumoniae ATCC 700603.
Test [19] has as its system Klebsiella pneumoniae NCTC 13442.
Test [20] relates to Klebsiella pneumoniae Q14-0095.
The subject of test [21] is Listeria monocytogenes NCTC 11994.
Test [22] has as its system Pseudomonas aeruginosa ATCC 27853.
Test [23] concerns Pseudomonas aeruginosa PAO1.
The test system of test [24] is Pseudomonas aeruginosa Q12-0535.
Test [25] relates to Pseudomonas aeruginosa Q12-0581.
Test [26] concerns Pseudomonas aeruginosa Q14-0208.
Test [27] has as its system Pseudomonas aeruginosa Q14-0890.
Test [28] deals with Salmonella typhimurium SL1344.
Test [29] concerns Staphylococcus aureus ATCC 29213.
The test system of test [30] is Staphylococcus aureus MRSA-15.
In test [31] the test system is Staphylococcus aureus NCTC 12493.
Test [32] concerns Staphylococcus aureus Q14-0320.
In test [33] the test system is Staphylococcus aureus Q14-0325.
Test [34] deals with Staphylococcus aureus RN4220.

≈ marks a conversion by molar mass, not a printed value.

The term MIC denotes the smallest concentration in the dilution series that meets the test's criterion for growth inhibition.

Turning to `NCCCC[C@H](NC(=O)CNC(=O)[C@H](CCCCN)NC(=O)[C@H](CC(N)=O)NC(=O)[C@@H]1CSSC[C@H](N)C(=O)N1)C(=O)N[C@@H](CC(N)=O)C(=O)N[C@@H](CCCCN)C(=O)NCC(=O)N[C@@H](CO)C(=O)N[C@@H](Cc1cnc[nH]1)C(=O)O` [CCNKGKNKGSH], the MIC in [1] was 42.5 µM (≈ 49.9 µg/mL); against Candida krusei CBS 573, ≥ 42.5 µM; in test [2], ≥ 42.5 µM; in test [3], ≥ 42.5 µM.
As to `CC[C@H](C)[C@H](NC(=O)[C@H](C)N)C(=O)NCC(=O)N[C@@H](CO)C(=O)N[C@H](C(=O)N[C@@H](CC(C)C)C(=O)NCC(=O)N[C@@H](C)C(=O)N[C@@H](CC(C)C)C(=O)N[C@@H](C)C(=O)N[C@@H](CCCCN)C(=O)NCC(=O)N[C@@H](CC(C)C)C(=O)N1CCC[C@H]1C(=O)N[C@H](C(=O)N[C@@H](CC(C)C)C(=O)N[C@@H](CCCCN)C(=O)N[C@@H](CO)C(=O)N[C@@H](Cc1c[nH]c2ccccc12)C(=O)N[C@H](C(=O)N[C@@H](CCCCN)C(=O)N[C@@H](CC(N)=O)C(=O)N[C@@H](CCCN=C(N)N)C(N)=O)[C@@H](C)CC)[C@@H](C)O)[C@@H](C)CC` [AIGSILGALAKGLPTLKSWIKNR], the MIC is 6.25 µM (≈ 15 µg/mL) in test [4]; 25 µM (≈ 60.2 µg/mL) in test [5]; ≥ 50 µM in [6]; 25 µM (≈ 60.2 µg/mL) in [7]; ≥ 50 µM in test [8]; 12.5 µM (≈ 30.1 µg/mL) in [9].
Regarding `CSCC[C@H](NC(=O)[C@H](C)NC(=O)[C@H](C)NC(=O)CNC(=O)[C@H](CCCN=C(N)N)NC(=O)[C@H](CC(=O)O)NC(=O)[C@@H](N)CC(=O)O)C(=O)N[C@@H](Cc1ccccc1)C(=O)N[C@@H](C)C(=O)N[C@H](C(=O)N[C@@H](CC(C)C)C(=O)N[C@@H](Cc1ccccc1)C(=O)N[C@@H](CC(N)=O)C(=O)N[C@@H](C)C(=O)N[C@@H](Cc1ccccc1)C(=O)N[C@@H](CO)C(=O)N[C@@H](CO)C(=O)N[C@@H](CC(C)C)C(=O)N[C@@H](CC(C)C)C(=O)N[C@@H](CCC(=O)O)C(=O)O)C(C)C` [DDRGAAMFAVLFNAFSSLLE], the MIC in test [10] was 2.3 µM (≈ 5 µg/mL); in [11], ≥ 280 µM; in [12], 7.82 µM (≈ 17 µg/mL).
As for `CC[C@H](C)[C@H](NC(=O)[C@H](Cc1ccccc1)NC(=O)[C@H](Cc1ccc(O)cc1)NC(=O)[C@@H](NC(=O)[C@H](CCCCN)NC(=O)[C@H](CC(C)C)NC(=O)[C@@H](NC(=O)[C@H](CCCCN)NC(=O)[C@@H](NC(=O)[C@@H](N)CO)[C@@H](C)CC)[C@@H](C)CC)[C@@H](C)CC)C(=O)N[C@@H](CCC(N)=O)C(=O)NCC(=O)N[C@@H](CCCCN)C(=O)N[C@@H](CCCN=C(N)N)C(=O)N[C@@H](Cc1cnc[nH]1)C(=O)N[C@@H](Cc1c[nH]c2ccccc12)C(=O)N[C@@H](CO)C(=O)N[C@@H](Cc1ccccc1)C(=O)O` [SIKILKIYFIQGKRHWSF], the MIC in test [13] is ≥ 56.5 µM; in test [14], 14.1 µM (≈ 32 µg/mL); in test [15] it was 28.3 µM (≈ 64 µg/mL); in test [16], ≥ 56.5 µM; with Campylobacter jejuni, ≥ 56.5 µM; in test [17], ≥ 113 µM. The MIC was ≥ 113 µM in the test with Escherichia coli K-12; > 56.5 µM in the test with Escherichia coli; 56.5 µM (≈ 128 µg/mL) in test [18]; ≥ 56.5 µM in [19]; ≥ 56.5 µM in test [20]; ≥ 113 µM in test [21]. For the same compound, the minimal inhibitory concentration (MIC) in test [22] is > 56.5 µM; in [23] it was 226 µM (≈ 512 µg/mL); in test [24], ≥ 56.5 µM; in test [25], 14.1 µM (≈ 32 µg/mL); in test [26], 28.3 µM (≈ 64 µg/mL); in test [27], 7.06 µM (≈ 16 µg/mL). For the same compound, the minimal inhibitory concentration (MIC) in test [28] was ≥ 226 µM; in test [29] it was 14.1 µM (≈ 32 µg/mL); in test [30], ≥ 110 µM; in test [31], 14.1 µM (≈ 32 µg/mL); in [32], 28.3 µM (≈ 64 µg/mL); in test [33], 14.1 µM (≈ 32 µg/mL). Further, the MIC in [34] was ≥ 113 µM.
